In publication PMC8490327 (Environment international, 2021):

How the values were obtained:
[1] = cited from earlier work; for Median serum concentration: general U.S. population, NHANES 2003-2004, ref Nelson et al. 2010
human PPARα = settings: ref Behr et al. 2020b, cited from earlier work; for PPARα activation compared to the positive control GW7647: even at concentrations 250 times greater than GW7647; for In vitro activation of human PPARα: reporter gene assays
[2] = Absolute quantitation of circulating PFAS; format: in vivo, mouse; settings: for Absolute Plasma PFAS Levels: Fold Change PFAS Female vs. PFAS Male / Absolute Plasma PFAS Levels: PFAS Female Average Concentration / Absolute Plasma PFAS Levels: PFAS male Average Concentration / Absolute Plasma PFAS Levels: Overall Average Concentration: 12 weeks; for concentration at 12 weeks: C57BL/6J, mouse, plasma, oral; for Absolute Plasma PFAS Levels: PFAS Female Average Concentration: exposed females; for Absolute Plasma PFAS Levels: PFAS Female Average Concentration / Absolute Plasma PFAS Levels: PFAS male Average Concentration: 2 mg/L each in drinking water, n=3; for Absolute Plasma PFAS Levels: PFAS male Average Concentration: exposed males; for Absolute Plasma PFAS Levels: Overall Average Concentration: exposed mice of both sexes
[3] = Relative plasma PFAS levels; format: in vivo, mouse; settings: for Relative Plasma PFAS Levels: Fold Change PFAS Female vs. PFAS Male / Relative Plasma PFAS Levels: Fold Change PFAS vs. Vehicle: 12 weeks of the 5-PFAS mixture, 2 mg/L each in drinking water; for Plasma level, fold increase in PFAS-exposed females compared to vehicle / Plasma level, fold increase in PFAS-exposed males compared to vehicle: 12 weeks
[4] = ref Olsen et al. 2007; cited from earlier work
[5] = Relative hepatic PFAS levels; format: in vivo, mouse; settings: liver; for Relative Hepatic PFAS Levels: Fold Change PFAS Female vs. PFAS Male / Relative Hepatic PFAS Levels: Fold Change PFAS vs. Vehicle: 12 weeks of the 5-PFAS mixture, 2 mg/L each in drinking water; for Hepatic level, fold increase in PFAS-exposed females compared to vehicle / Hepatic level, fold increase in PFAS-exposed males compared to vehicle: 12 weeks
humans = settings: cited from earlier work

| Compound | PPARα activation compared to the positive control GW7647 (human PPARα) | In vitro activation of human PPARα (human PPARα) | Absolute Plasma PFAS Levels: Fold Change PFAS Female vs. PFAS Male [2] [fold] | concentration at 12 weeks ([2]; both) [ng/mL] | Relative Plasma PFAS Levels: Fold Change PFAS Female vs. PFAS Male [3] [fold] | Plasma level, fold increase in PFAS-exposed females compared to vehicle [3] [fold] | Plasma level, fold increase in PFAS-exposed males compared to vehicle [3] [fold] | Biological half-life in human serum [4] | Relative Hepatic PFAS Levels: Fold Change PFAS Female vs. PFAS Male [5] [fold] | Relative Hepatic PFAS Levels: Fold Change PFAS vs. Vehicle [5] [fold] | Hepatic level, fold increase in PFAS-exposed females compared to vehicle [5] [fold] | Hepatic level, fold increase in PFAS-exposed males compared to vehicle [5] [fold] | Absolute Plasma PFAS Levels: PFAS Female Average Concentration [2] [µg/mL] | Absolute Plasma PFAS Levels: PFAS male Average Concentration [2] [µg/mL] | Absolute Plasma PFAS Levels: Overall Average Concentration [2] [µg/mL] | Relative Plasma PFAS Levels: Fold Change PFAS vs. Vehicle [3] [fold] | Median serum concentration [1] [ng/mL] | also measured |
| --- | --- | --- | --- | --- | --- | --- | --- | --- | --- | --- | --- | --- | --- | --- | --- | --- | --- | --- |
| N.O=C(O)C(F)(OC(F)(F)C(F)(F)C(F)(F)F)C(F)(F)F (stereo not shown) [GenX] | 60-90% | capable of PPARα activation | 1.8 | 140 |  |  |  |  |  |  |  |  |  |  |  |  |  | Serum level in a population exposed to PFAS-contaminated water ([1]; not detected above limit of detection, ref Kotlarz et al. 2020): < 2 ng/mL; concentration at 12 weeks [2]: ~100 ng/g |
| O=S(=O)(O)C(F)(F)C(F)(F)C(F)(F)C(F)(F)C(F)(F)C(F)(F)F [PFHxS] |  | capable of PPARα activation | 0.9 | 23800 | 0.96 | 6491 | 5414.2 | ~8.5 years | 1.30 | 705.46 | 2035.7 | 387.1 |  |  |  |  |  |  |
| O=C(O)C(F)(F)C(F)(F)C(F)(F)C(F)(F)C(F)(F)C(F)(F)C(F)(F)C(F)(F)F [PFNA, perfluorononanoic acid] |  |  | 0.8 |  |  |  |  |  |  |  |  |  | 33.7 ± 7.6 | 40.9 ± 10.6 | 37.3 ± 9.1 |  |  |  |
| O=C(O)C(F)(F)C(F)(F)C(F)(F)C(F)(F)C(F)(F)C(F)(F)C(F)(F)F [PFOA, perfluorooctanoic acid] | 60-90% | capable of PPARα activation | 3.2 | 15400 | 1.96 | 10883.6 | 6936.8 | around 4 years | 2.43 | 1513.94 | 4693.4 | 571.9 | 23.4 ± 9.0 | 7.3 ± 1.8 |  | 10270.75 | 3.9 | Predicted increase in total cholesterol from lowest to highest decile of PFOA (humans; exposed communities, ref Steenland et al. 2009): 11 to 12 mg/dL; Increase in total cholesterol associated with 1 ppm increase in serum PFOA (humans; occupationally exposed populations, ref Sakr et al. 2007): 1.06 mg/dL; Average serum concentration ([1]; populations occupationally exposed to PFOA, ref Sakr et al. 2007): 1.13 µg/mL |
| O=S(=O)(O)C(F)(F)C(F)(F)C(F)(F)C(F)(F)C(F)(F)C(F)(F)C(F)(F)C(F)(F)F [PFOS, Perfluorooctane sulfonate] |  | capable of PPARα activation | 0.6 |  | 0.77 | 545.2 | 708.9 | ~5 years | 0.92 | 188.03 | 386.3 | 127.2 | 13.8 ± 2.3 | 22.5 ± 4.1 | 18.1 ± 5.6 | 627.07 | 21 |  |
